Source: patent US11401279B2, “Pyrido[3,2-d]pyrimidine compounds as immunomodulators” (Incyte Corporation, priority 2019, dated 2022)

Columns and labels:
[1] = In vivo pharmacokinetics in monkeys; settings: cynomolgus monkey, cassette dosing; for clearance / half-life / Vd / AUC(0-inf) / Cmax: both sexes, plasma; for clearance / half-life / Vd: 1.0 mg/kg IV; for Vd: read-out: Vss; for AUC(0-inf) / Cmax / F: 3.0 mg/kg PO
Procedure: For in vivo pharmacokinetic experiments, test compounds were administered to male Sprague Dawley rats or male and female Cynomolgus monkeys intravenously or via oral gavage. For intravenous (IV) dosing, test compounds were dosed at 0.5 to 1 mg/kg using a formulation of 10% dimethylacetamide (DMAC) in acidified saline via IV bolus for rat and 5 min or 10 min IV infusion for monkey. For oral (PO) dosing, test compounds were dosed at 1.0 to 3.0 mg/kg using 5% DMAC in 0.5% methylcellulose in citrate buffer (pH 3.5). Blood samples were collected at predose and various time points up to 24 hours postdose. All blood samples were collected using EDTA as the anticoagulant and centrifuged to obtain plasma samples. The plasma concentrations of test compounds were determined by LC-MS methods. The measured plasma concentrations were used to calculate PK parameters by standard noncompartmental methods using Phoenix® WinNonlin software program (version 7.0, Pharsight Corporation).
In rats and monkeys, cassette dosing of test compounds were conducted to obtain preliminary PK parameters.

[2] = test system: PD-L1 aAPC/CHO-K1 cells and Jurkat-PD-1-NFAT effector cells; assay: Nuclear factor of activated T-cells (NFAT) assay; format: cell-based; settings: Cricetulus griseus, CHO-K1; luminescence, 24 hours
Method in brief: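 PD-L1 aAPC/CHO-K1 cells (8000/well) co-cultured with Jurkat-PD-1-NFAT effector cells (10,000/well) plus compound in RPMI/1% FBS, 0.4% DMSO, top concentration 2 μM, 24 h at 37 °C. NFAT luciferase read by Bio-Glo luminescence. Fold induction normalized to DMSO; maximum induction relative to control compound; EC50 from curve fit.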

SMILES	clearance [1] [mL/min/kg]	half-life [1] [h]	Vd [1] [L/kg]	AUC(0-inf) [1] [µM·h]	Cmax [1] [nM]	F [1] [%]	EC50 [2] [nM]
Cc1c(NC(=O)c2nc3c(n2C)CCN(CCC24CCC(C(=O)O)(CC2)C4)C3)cccc1-c1cccc(Nc2nc(C(F)F)nc3cc(CN4CC[C@@H](O)C4)cnc23)c1C [Example 5, (R)-4-(2-(2-((3′-((2-(difluoromethyl)-7-((3-hydroxypyrrolidin-1-yl)methyl)pyrido[3,2-d]pyrimidin-4-yl)amino)-2,2′-dimethyl-[1,1′-biphenyl]-3-yl)carbamoyl)-1-methyl-1,4,6,7-tetrahydro-5H-imidazo[4,5-c]pyridin-5-yl)ethyl)bicyclo[2.2.1]heptane-1-carboxylic Acid]	4.93	8.48	1.14	11.1	1300	89	9.2
Cc1c(Nc2nc(C(F)F)nc3cc(CN4CC[C@@H](O)C4)cnc23)cccc1-c1cccc(NC(=O)c2nc3c(n2C)CCN(CCC24CCC(C(=O)O)(CC2)C4)C3)c1Cl [Example 1, (R)-4-(2-(2-((2-chloro-3′-((2-(difluoromethyl)-7-((3-hydroxypyrrolidin-1-yl)methyl)pyrido[3,2-d]pyrimidin-4-yl)amino)-2′-methyl-[1,1′-biphenyl]-3-yl)carbamoyl)-1-methyl-1,4,6,7-tetrahydro-5H-imidazo[4,5-c]pyridin-5-yl)ethyl)bicyclo[2.2.1]heptane-1-carboxylic Acid]	4.25	6.35	1.01	8.24	794	59	2
Cc1c(Nc2nc(C(F)F)nc3cc(CN4CC[C@@](C)(O)C4)cnc23)cccc1-c1cccc(NC(=O)c2nc3c(n2C)CCN(CCC24CCC(C(=O)O)(CC2)C4)C3)c1Cl [Example 2, (R)-4-(2-(2-((2-chloro-3′-((2-(difluoromethyl)-7-((3-hydroxy-3-methylpyrrolidin-1-yl)methyl)pyrido[3,2-d]pyrimidin-4-yl)amino)-2′-methyl-[1,1′-biphenyl]-3-yl)carbamoyl)-1-methyl-1,4,6,7-tetrahydro-5H-imidazo[4,5-c]pyridin-5-yl)ethyl)bicyclo[2.2.1]heptane-1-carboxylic Acid]	4.78	6.23	1.36	6.84	579	57	4
